Laboratory results from ChEMBL document CHEMBL1201862, “PubChem BioAssay data set” (2004).
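All cell lines were grown in 96-well plates and treated with compound for 48 hours. Here, GI50 denotes the concentration required for 50% inhibition of growth.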 Activity calls are given as the source filed them. Rule as the data show it: active = GI50 up to about 1.1 µM and inactive = higher.

Key:
Assay in all cases: NCI anticancer screen, dose series, 48 h
[1] = tested on: CCRF-CEM
[2] = tested on: EKVX
[3] = tested on: HL-60
[4] = tested on: HOP-62
[5] = tested on: HT-29
[6] = tested on: Hs-578T
[7] = tested on: KM12
[8] = tested on: LOX IMVI
[9] = tested on: MDA-MB-231
[10] = tested on: MDA-N
[11] = tested on: MOLT-4
[12] = tested on: NCI/ADR-RES
[13] = tested on: SF-539
[14] = tested on: SK-MEL-2
[15] = tested on: SNB-19
[16] = tested on: SR
[17] = tested on: TK-10
[18] = tested on: U-251
[19] = tested on: UACC-257
[20] = tested on: UACC-62

| Structure (SMILES) | GI50 [1] | GI50 [2] | GI50 [3] | GI50 [4] | GI50 [5] | GI50 [6] | GI50 [7] | GI50 [8] | GI50 [9] | GI50 [10] | GI50 [11] | GI50 [12] | GI50 [13] | GI50 [14] | GI50 [15] | GI50 [16] | GI50 [17] | GI50 [18] | GI50 [19] | GI50 [20] |
| --- | --- | --- | --- | --- | --- | --- | --- | --- | --- | --- | --- | --- | --- | --- | --- | --- | --- | --- | --- | --- |
| CCC(C)C(=O)O[C@H]1C(=O)O[C@@H]2C[C@H]3C(C)=CC(=O)[C@@H](O)[C@]3(C)[C@H]3[C@@H](O)[C@H](O)[C@@]4(C)OC[C@]32[C@@H]14 (stereo not given in full) | 0.0143 µM (active) | 0.121 µM (active) | 0.014 µM (active) | < 0.0221 µM (active) | < 0.0146 µM (active) | < 0.01 µM (active) | < 0.0161 µM (active) | < 0.0129 µM (active) | < 0.01 µM (active) | < 0.01 µM (active) | 0.0112 µM (active) | < 0.0334 µM (active) | < 0.0176 µM (active) | < 0.0252 µM (active) | < 0.0143 µM (active) | 0.01 µM (active) | < 0.0198 µM (active) | < 0.0171 µM (active) | < 0.01 µM (active) | < 0.019 µM (active) |
| CN(CC(=O)O)c1ncc2c(n1)C=CCC2 | > 100 µM (inactive) | > 100 µM (inactive) | 81.5 µM (inactive) | > 100 µM (inactive) | > 100 µM (inactive) | > 100 µM (inactive) | > 100 µM (inactive) | > 100 µM (inactive) | > 100 µM (inactive) | > 100 µM (inactive) | > 100 µM (inactive) | > 100 µM (inactive) | > 100 µM (inactive) | > 100 µM (inactive) | > 100 µM (inactive) | > 100 µM (inactive) | > 100 µM (inactive) | > 100 µM (inactive) | > 100 µM (inactive) | > 100 µM (inactive) |
| CCCCCCCCCCCCCCCCNc1nc(=O)n(C2CC(O)C(COP(=O)(O)OC3CC(n4cc(F)c(=O)[nH]c4=O)OC3CO)O2)cc1F (stereo not given) | < 0.0122 µM (active) | 26.4 µM (inactive) | 0.328 µM (active) | < 0.0296 µM (active) | 1.87 µM (inactive) | 15.6 µM (inactive) | 20.7 µM (inactive) | 0.0637 µM (active) | 28.4 µM (inactive) | 19.4 µM (inactive) | 1.95 µM (inactive) | 0.634 µM (active) | < 0.0108 µM (active) | 30.1 µM (inactive) | 0.27 µM (active) | < 0.0243 µM (active) | 25.7 µM (inactive) | 1.66 µM (inactive) | 12.8 µM (inactive) | 0.337 µM (active) |
| O=C1c2c(ccc3c2CCC3)CC1Cc1ccc2c(c1)CCC2 (stereo not given) | 14.5 µM (inactive) | 28.1 µM (inactive) | 4.69 µM (inactive) | 28.1 µM (inactive) | 17.6 µM (inactive) | 10 µM (inactive) | 25.2 µM (inactive) | 25.4 µM (inactive) | 10.3 µM (inactive) | 30.8 µM (inactive) | 13.1 µM (inactive) | 28.2 µM (inactive) | 91 µM (inactive) | 27.2 µM (inactive) | 48.5 µM (inactive) | 5.27 µM (inactive) | 29.2 µM (inactive) | 24.2 µM (inactive) | 18.5 µM (inactive) | 8.24 µM (inactive) |
| Fc1ccc(OCc2ccc3nc(-c4ccccc4)c(Cl)nc3c2)cc1 | 25.7 µM (inactive) | 39.6 µM (inactive) | 33.3 µM (inactive) | 16.3 µM (inactive) | 65.2 µM (inactive) | 24.7 µM (inactive) | 51.6 µM (inactive) | 88.5 µM (inactive) | 20 µM (inactive) | 72.4 µM (inactive) | 21.6 µM (inactive) | 34.1 µM (inactive) | 16 µM (inactive) | 41.9 µM (inactive) | > 10 µM (inactive) | 16.1 µM (inactive) | 31.8 µM (inactive) | 16.8 µM (inactive) | > 100 µM (inactive) | 28.8 µM (inactive) |
| CCOc1c2ccsc2c(OCC)c2ccsc12 | 3.77 µM (inactive) | > 29.6 µM (inactive) | 2.07 µM (inactive) | 4.78 µM (inactive) | 3.48 µM (inactive) | 4.21 µM (inactive) | 3.77 µM (inactive) | 2.61 µM (inactive) | 8.57 µM (inactive) | 0.94 µM (active) | 3.52 µM (inactive) | 7.05 µM (inactive) | 2.41 µM (inactive) | > 30.1 µM (inactive) | 4.37 µM (inactive) | 4.32 µM (inactive) | > 100 µM (inactive) | 3.72 µM (inactive) | > 29.1 µM (inactive) | 3.85 µM (inactive) |
| CC(=O)N1NC(c2ccccc2)=NC(=O)C1c1cc(C)c(O)c(C)c1 (stereo not given) | > 100 µM (inactive) | 34 µM (inactive) | > 100 µM (inactive) | 16.2 µM (inactive) | 72.4 µM (inactive) | 29.8 µM (inactive) | 36 µM (inactive) | 36.3 µM (inactive) | 21.7 µM (inactive) | 54.6 µM (inactive) | > 100 µM (inactive) | 21.9 µM (inactive) | 20.4 µM (inactive) | 28.1 µM (inactive) | 21.2 µM (inactive) | 49.3 µM (inactive) | 20.6 µM (inactive) | 19.2 µM (inactive) | 31.2 µM (inactive) | 20.3 µM (inactive) |
| CC(NNC(=O)c1ccncc1)c1ccc(Cl)cc1Cl (stereo not given) | 49.4 µM (inactive) | > 100 µM (inactive) | 46.5 µM (inactive) | 88.5 µM (inactive) | > 100 µM (inactive) | > 100 µM (inactive) | 49.3 µM (inactive) | 86.5 µM (inactive) | > 100 µM (inactive) | > 100 µM (inactive) | 83.8 µM (inactive) | 93.8 µM (inactive) | > 100 µM (inactive) | > 100 µM (inactive) | > 100 µM (inactive) | 55.3 µM (inactive) | > 100 µM (inactive) | > 100 µM (inactive) | > 100 µM (inactive) | > 100 µM (inactive) |
| COC(=O)/C=C1\C(=O)N(C(C)=O)c2ccccc21 | 2.97 µM (inactive) | 12.3 µM (inactive) | 2.03 µM (inactive) | 12.9 µM (inactive) | 5.28 µM (inactive) | 4.17 µM (inactive) | 12.7 µM (inactive) | 3.91 µM (inactive) | 7.6 µM (inactive) | 7.85 µM (inactive) | 5.78 µM (inactive) | 13.9 µM (inactive) | 4.79 µM (inactive) | 16.9 µM (inactive) | 18 µM (inactive) | 2.52 µM (inactive) | 7.14 µM (inactive) | 12.8 µM (inactive) | 7.38 µM (inactive) | 4.27 µM (inactive) |
| CCN(c1cccc(NC(=S)Nc2ccccc2N(CC)c2cc(-c3ccccc3)no2)c1)c1cc(-c2ccccc2)no1 | > 100 µM (inactive) | > 100 µM (inactive) | > 100 µM (inactive) | > 100 µM (inactive) | > 100 µM (inactive) | > 100 µM (inactive) | > 100 µM (inactive) | > 100 µM (inactive) | > 100 µM (inactive) | > 100 µM (inactive) | > 100 µM (inactive) | > 100 µM (inactive) | > 100 µM (inactive) | > 100 µM (inactive) | > 100 µM (inactive) | > 100 µM (inactive) | > 100 µM (inactive) | > 100 µM (inactive) | > 100 µM (inactive) | > 100 µM (inactive) |
| N=C(N)NC1C(O)C(O)C(O)C(NC(=N)N)C1O (stereo not given) | > 100 µM (inactive) | > 100 µM (inactive) | > 100 µM (inactive) | > 100 µM (inactive) | > 100 µM (inactive) | > 100 µM (inactive) | > 100 µM (inactive) | > 100 µM (inactive) | > 100 µM (inactive) | > 100 µM (inactive) | > 100 µM (inactive) | > 100 µM (inactive) | > 100 µM (inactive) | > 100 µM (inactive) | > 100 µM (inactive) | > 100 µM (inactive) | > 100 µM (inactive) | > 100 µM (inactive) | > 100 µM (inactive) | > 100 µM (inactive) |
| COc1cc(OC)c(-c2ccc(OCc3ccccc3)c3c(OC)cc(C)cc23)c2c1C(C)=N[C@H](C)C2 | 1.99 µM (inactive) | 2.4 µM (inactive) | 2.2 µM (inactive) | 2.26 µM (inactive) | 1.97 µM (inactive) | 2.29 µM (inactive) | 2.09 µM (inactive) | 1.88 µM (inactive) | 2.33 µM (inactive) | 2.15 µM (inactive) | 2.29 µM (inactive) | 2.12 µM (inactive) | 2.38 µM (inactive) | 2.25 µM (inactive) | 2.68 µM (inactive) | 1.16 µM (inactive) | 1.8 µM (inactive) | 2.08 µM (inactive) | 2.17 µM (inactive) | 2.1 µM (inactive) |
| FC(F)(F)C1(C(F)(F)F)O[Si]2(OC(C(F)(F)F)(C(F)(F)F)c3ccccc32)c2ccccc21 | 10.5 µM (inactive) | 15 µM (inactive) | 13.6 µM (inactive) | 8.67 µM (inactive) | 7.62 µM (inactive) | 11.9 µM (inactive) | 17.1 µM (inactive) | 9.44 µM (inactive) | 8.24 µM (inactive) | 13.4 µM (inactive) | 14.4 µM (inactive) | 6.58 µM (inactive) | 10.2 µM (inactive) | 7.66 µM (inactive) | 9.57 µM (inactive) | 9.95 µM (inactive) | 17.4 µM (inactive) | 3.95 µM (inactive) | 18 µM (inactive) | 5.55 µM (inactive) |
| Cn1c2c(c3ccccc3c1=O)C(=O)c1ccccc1-2 | > 100 µM (inactive) | 20.6 µM (inactive) | 6.93 µM (inactive) | 18.9 µM (inactive) | 97.5 µM (inactive) | > 100 µM (inactive) | > 100 µM (inactive) | 27.2 µM (inactive) | 43.4 µM (inactive) | > 100 µM (inactive) | 3.07 µM (inactive) | 51.2 µM (inactive) | 19.7 µM (inactive) | > 100 µM (inactive) | 44.2 µM (inactive) | 5.2 µM (inactive) | 21.4 µM (inactive) | 35.3 µM (inactive) | > 100 µM (inactive) | 59 µM (inactive) |
